Laboratory results reported in ChEMBL document CHEMBL3351940, “Antioxidant effects of the highly-substituted carbazole alkaloids and their related carbazoles” (Bioorg Med Chem Lett, 2014).

How the values were obtained:
[1] = Cytotoxicity against human HCT116 cells assessed as reduction cell viability at 100 uM after 48 hrs by MTT assay; type: cell-based; conditions: hct-116, 48 h
[2] = Antioxidant activity assessed as ABTS+ radical scavenging capacity after 16 hrs by UV spectrophotometry; type: physicochemical
[3] = Antioxidant activity assessed as DPPH radical scavenging capacity after 30 mins by UV spectrophotometry; type: physicochemical
[4] = Antioxidant activity assessed as reduction of Cu2+ to Cu+ after 3 mins by PAO-SO method; type: physicochemical; conditions: 0.05 h

Structure (SMILES) | Activity [1] | IC50 [2] | IC50 [3] | Activity [4]
CCCCCCCc1c(C)c(O)cc2c1[nH]c1ccccc12 | Non-toxic | 159 µM | 12 µM | 2803 µmol/L
C/C(=C\c1c(C)c(O)cc2c1[nH]c1c(O)ccc(CO)c12)CCC(C)C | Non-toxic | 112 µM | 9.9 µM | 3567 µmol/L
C/C(=C\c1c(C)c(O)cc2c1[nH]c1c(O)ccc(C=O)c12)CCC(C)C | Non-toxic | 52.6 µM | 7.1 µM | 4584 µmol/L
CC[C@H](C)CC/C(C)=C/c1c(C)c(O)cc2c1[nH]c1c(O)ccc(CO)c12 | Non-toxic | 116 µM | 9.8 µM | 3413 µmol/L
CC[C@H](C)CC/C(C)=C/c1c(C)c(O)cc2c1[nH]c1c(O)ccc(C=O)c12 | Non-toxic | 57.1 µM | 7.6 µM | 4580 µmol/L
CC(C)=CCc1ccc2[nH]c3c(c2c1)C(=O)C(=O)C(C)=C3CC(C)O (centres undefined) | Toxic | > 500 µM | > 50 µM | 1182 µmol/L
Cc1c(O)cc2c([nH]c3ccccc32)c1CC(C)O (centres undefined) | Non-toxic | 161 µM | 12 µM | 2881 µmol/L
CC(C)=CCc1ccc2[nH]c3c(CC(C)O)c(C)c(O)cc3c2c1 (centres undefined) | Toxic | 175 µM | 12 µM | 2411 µmol/L
Cc1c(C)c2c(c(C)c1O)CC[C@@](C)(CCC[C@H](C)CCC[C@H](C)CCCC(C)C)O2 [ALPHA-TOCOPHEROL] | Non-toxic | 211 µM | 15.4 µM | Active
CC1=NN(c2ccccc2)C(=O)C1 [EDARAVONE] | Non-toxic | 214 µM | 19.7 µM | 3096 µmol/L
CCCOC(=O)c1cc(O)c(O)c(O)c1 [PROPYL GALLATE] | Non-toxic | 188 µM | 6.1 µM | 3096 µmol/L
